Measured values reported in paper PMC3347614 (Acta Naturae, 2011).
“Also recorded” adds a separate entry of the source.

Each compound was assayed against T1, DNA gyrase (Escherichia coli, UniProt P0AES4+P0AES6) (assay: Inhibition of DNA gyrase supercoiling of relaxed plasmid pBR322 (agarose gel electrophoresis)). Settings: qualitative statement.
T1 construct: His6 (N); made in house; host or cells: Escherichia coli Rosetta (DE3)
Assay type: biochemical, E. coli
Method: The reaction mixture (30 µl) contained 35 mM Tris-HCl (pH 7.5), 24 mM KCl, 4 mM MgCl 2 , 1.4 mM ATP, 5 mM DTT, 1.8 mM spermidine, and 0.1 mg/ml of a bovine serum albumin. A mixture of DNA gyrase A and B subunits (0.4 µg) and 0.25–0.5 µg of the substrate (relaxed plasmid pBR322) were added to the reaction probe. The reaction was performed for 60 min at 25°C (for multiple samples, 96-well plates were used). After the reaction was completed, the samples were extracted with an equal volume of chloroform (30 µl). Then, 7 µl of the mixture containing […], 25% of glycerol, and 0.25% of bromphenol blue were added to the aqueous phase. The mixture was applied on a 1.2% agarose gel in TAE buffer (40 mM Tris-acetate, pH 8.0, 2 mM EDTA) and analyzed with electrophoresis (50 V, 2 h). The products were visualized under UV-light after staining with ethidium bromide. The activity of the enzyme (%) was determined from the intensity of the band corresponding to the super-coiled form of plasmid pBR322 and estimated using the Total Lab v2.01 software.
An equal volume of DMSO was added to the control. The reaction was started upon addition of DNA gyrase (0.4 µg) and relaxed plasmid pBR322 (0.25–0.5 µg), which was used as a substrate, and performed as described above. Calculations were made using the Total Lab v2.01 program.

T1 sequence (P0AES4 whole entry, one chain of several): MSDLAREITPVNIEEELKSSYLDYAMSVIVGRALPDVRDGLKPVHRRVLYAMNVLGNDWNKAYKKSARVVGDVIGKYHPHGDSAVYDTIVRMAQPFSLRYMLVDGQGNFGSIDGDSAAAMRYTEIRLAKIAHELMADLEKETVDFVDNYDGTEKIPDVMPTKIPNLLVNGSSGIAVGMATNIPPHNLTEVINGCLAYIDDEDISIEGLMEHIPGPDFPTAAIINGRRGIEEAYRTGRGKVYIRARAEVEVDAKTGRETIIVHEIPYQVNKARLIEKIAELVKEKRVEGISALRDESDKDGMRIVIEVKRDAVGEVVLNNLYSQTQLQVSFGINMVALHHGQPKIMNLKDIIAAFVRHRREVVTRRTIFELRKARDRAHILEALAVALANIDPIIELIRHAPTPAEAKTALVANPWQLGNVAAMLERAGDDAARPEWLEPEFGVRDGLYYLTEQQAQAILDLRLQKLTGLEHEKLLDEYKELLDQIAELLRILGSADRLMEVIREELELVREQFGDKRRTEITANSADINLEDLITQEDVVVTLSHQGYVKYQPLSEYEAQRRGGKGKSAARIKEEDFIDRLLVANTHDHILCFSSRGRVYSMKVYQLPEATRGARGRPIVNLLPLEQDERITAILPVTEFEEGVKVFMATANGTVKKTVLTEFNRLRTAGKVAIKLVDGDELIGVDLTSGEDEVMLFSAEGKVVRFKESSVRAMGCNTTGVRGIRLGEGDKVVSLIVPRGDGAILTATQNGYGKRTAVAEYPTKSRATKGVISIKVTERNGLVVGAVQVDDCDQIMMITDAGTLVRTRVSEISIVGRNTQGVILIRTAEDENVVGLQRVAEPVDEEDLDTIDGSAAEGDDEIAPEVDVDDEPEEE

SMILES	Inhibitory activity towards DNA gyrase, in words
C[C@H]1COc2c(F)c(F)cc3c(=O)c(C(=O)O)cn1c23 [IOS-K, (3S)-(-)-Difluoro-3-methyl-7-oxo-2,3-dihydro-7H-pyrido[1,2,3-d,e][1, 4]-benzoxazine-6-carboxylic acid]	significant inhibitory activity
C[C@H]1COc2c(ccc(F)c2F)N1 [IOS-S, (3S)-2,3-Dihydro-3-methyl-7,8-difluoro-1,4-benzoxazine]	no significant activity
CC1COc2c(ccc(F)c2F)N1 (racemic) [IOS-RS, (R,S)-7,8-Difluoro-3-methyl-2,3-dihydro-4H-benzo[b][1, 4]-oxazine]	no significant activity
CCn1cc(C(=O)O)c(=O)c2cc(F)c(N3CCNCC3)cc21 [IOS-NORFL_01, norfloxacin, reference compound]	poor inhibitor
CCOC(=O)c1cn2c3c(c(F)c(F)cc3c1=O)OC[C@@H]2C [IOS-E, Ethyl ester of (3S)-(-)-9,10-difluoro-3-methyl-7-oxo-2,3-dihydro-7H-pyrido[1,2,3-d,e][1, 4]-benzoxazine-6-carboxylic acid]	no significant activity; also recorded: practically inactive

Same assay, conditions: relative to levofloxacin, in words

SMILES	Activity towards DNA gyrase compared with that of levofloxacin
C[C@H]1COc2c(F)c(F)cc3c(=O)c(C(=O)O)cn1c23 [IOS-K, (3S)-(-)-Difluoro-3-methyl-7-oxo-2,3-dihydro-7H-pyrido[1,2,3-d,e][1, 4]-benzoxazine-6-carboxylic acid]	lower by an order of magnitude
CN1C2=Nn3cc(C(=O)O)c(=O)c4c(F)c(F)c(N5CCCC5)c(c43)N2c2cc(F)c(F)cc21 [EV-465]	two orders of magnitude

Same assay, conditions: relaxed pBR322, 60 min, 25°C

SMILES	I50 (inhibition activity towards DNA gyrase)
O=C(O)c1cn2c3c(c(N4CCOCC4)c(F)cc3c1=O)SC(NC1CCCCC1)=N2 [EV-572]	EV-572 Inactive
Oc1ccccc1/C=N\Nc1nc(-c2ccccc2)nc2cccc(F)c12 [EV-T150-C]	EV-T150-C Inactive
O=c1[nH]c(N/N=C/c2ccccc2O)nc2c(F)c(N3CCCC3)c(F)cc12 [EV-T143-B]	EV-T143-B Inactive
CC(C)(C)c1cc(-n2c(-c3ccccc3)nc3cc(F)c(F)cc3c2=O)no1 [EV-X149]	EV-X149 Inactive
CCOC(=O)c1cn2c3c(c(F)c(F)cc3c1=O)OC(c1cccnc1)=N2 [EV-313-D]	EV-313-D Inactive
O=C(C(=C1Nc2ccccc2N1)c1nc(=O)c2cc(F)c(F)c(F)c2s1)c1ccccc1 [EV-N51-B]	EV-N51-B Inactive
CCSc1nc(Nc2ccc(F)c(F)c2)c2cc(F)c(F)c(F)c2n1 [EV-X58-A]	EV-X58-A Inactive
O=C(O)c1cn2c3c(c(N4CCCC4)c(F)cc3c1=O)OC(c1cccc([N+](=O)[O-])c1)=N2 [EV-452-D]	EV-452-D Inactive
O=c1nc(Nc2ncccn2)sc2c(F)c(F)c(F)cc12 [EV-N119-2]	EV-N119-2 Inactive
O=c1c2cc(F)c(F)cc2nc(/C=C/c2ccccc2O)n1-c1ccccc1 [EV-T156]	EV-T156 Inactive
O=C(O)c1cn2c3c(c(F)c(F)cc3c1=O)NC(c1ccccc1)=N2 [EV-591]	EV-591 Inactive

Same assay, conditions: relaxed pBR322, 60 min, 25°C; read-out: I50 (inhibition activity towards DNA gyrase)

SMILES	IC50
CN1C2=Nn3cc(C(=O)O)c(=O)c4c(F)c(F)c(N5CCCC5)c(c43)N2c2cc(F)c(F)cc21 [EV-465]	> 63.4 µM
